Assay results from patent publication US20260015574A1, “METHODS FOR SHORTENING LAG PHASE DURATION IN MICROORGANISMS” (YEDA RESEARCH AND DEVELOPMENT CO. LTD., priority 2022, published 2026).

Key:
[1] = system: P. inhibens dmdA KO mutant; assay: Lag phase shortening in dmdA knockout mutant; assay type: cell-based, Phaeobacter inhibens
Description: (§1) For creation of P. inhibens knockout cells, ˜1,000 bp regions upstream and downstream of the gene of interest were amplified by PCR (Phusion High-Fidelity DNA polymerase, Thermo Scientific), using primers that added homologous regions to gentamycin or kanamycin resistance markers. The fragments were assembled and cloned into the TOPOII vector (Invitrogen) using restriction-free cloning (Peleg Y. & Unger T., 2014), generating a knockout (KO) plasmid. P. inhibens electrocompetent cells (300 μl) were transformed with 10 μg of the constructed KO plasmid by a pulse of 1.8 kV (Bio Rad). Cells were selected on ½YTSS agar plates containing 30 μg/ml gentamycin or 150 μg/ml kanamycin. Successful knockouts in single cell clones were verified by PCR and sanger sequencing.
The inventors further sought to better understand why methyl groups shorten the bacterial lag phase. The inventors list at least three cellular scenarios which could explain the effect that methylated compounds have on the lag phase: (1) methyl groups might be a limiting resource; (2) methyl groups might act as a signal that triggers a cellular cascade, which culminates in lag phase shortening; and (3) methylated compounds could accumulate intracellularly and function as osmoprotectants and antioxidants. […]

P. inhibens Δbmt mutant = assay: Growth and lag phase shortening in Δbmt mutant; assay type: cell-based, Phaeobacter inhibens; settings: 2 μM DMSP, minimal media with or without 200 μM methionine
Description: as §1

[2] = system: Bacillus subtilis strain 168; assay: Lag phase shortening in B. subtilis; assay type: cell-based; settings: 2 μM compound
Description: The bacterial strain Phaeobacter inhibens DSM 17395 was purchased from the German collection of microorganisms and cell cultures (DSMZ, Braunschweig, Germany) and stored at −80° C. with 20% glycerol. Routine cultivation of P. inhibens was conducted at 30° C. in artificial seawater medium (ASW) based on Goyet and Poisson (1989). The ASW medium contained mineral salts (NaCl, 409.41 mM; Na2SO4, 28.22 mM; KCl, 9.08 mM; KBr, 0.82 mM; NaF, 0.07 mM; Na2CO3, 0.20 mM; NaHCO3, 2 mM; MgCl2, 50.66 mM; SrCl2, 0.09 mM), L1 vitamins (thiamine HCl, 100 μg/L; biotin, 0.5 μg/L; vitamin B12, […]), L1 trace elements (Na2EDTA·2H2O, 4.36 mg/L; FeCl3·6H2O, 3.15 mg/L; MnCl2·4H2O, 178.1 μg/L; ZnSO4·7H2O, 23.0 μg/L; CoCl2·6H2O, 11.9 μg/L; CuSO4·5H2O, 2.5 μg/L; Na2MoO4·2H2O, 19.9 μg/L; H2SeO3, 1.29 μg/L; NiSO4·6H2O, 2.63 μg/L; Na3 VO4, 1.84 μg/L; K2CrO4, 1.94 μg/L), and L1 nutrients (NaNO3, 882 μM; NaH2PO4, 36.22 μM). ASW was adjusted to pH 8 using HCl. If not otherwise stated, the medium was further supplemented with a source of carbon (glucose, 1 mM), nitrogen (NH4Cl, 5 mM), and sulfur (Na2SO4, 33 mM), referred to as ASW+CNS. Methylated effector compounds (e.g., donors) were administered at 1 or 2 μM in routine assays, or in higher concentrations as stated. The bacterium Bacillus subtilis strain 168 was cultivated in M9 Medium (Na2HPO4, 6 g/L; KH2PO4, 3 g/L; NaCl, 0.5 g/L; NH4CL, 1 g/L; CaCl2), 100 µM; MgSO4, 1 mM; Thiamine, 5 mg/L; EDTA, 50 mg/L; FcCl3, 4.98 mg/L; ZnCl2, 0.84 mg/L; CuCl2·2H2O, 0.13 mg/L; CoCl2·6H2O, 0.1 mg/L; H3BO3, 0.1 mg/L; MnCl2·4H2O, 0.016 mg/L; pH 7.1) with 20 mM glucose. Other bacterial strains tested for lag phase shortening were isolated from the marine environment (Despotović et al., 2021), and cultivated in ASW+CNS. A 96-well Tecan Infinite M Plex plate reader was used for high-resolution monitoring of bacterial growth dynamics at 30° C. […] The growth of bacteria in co-culture with algae was monitored by counting colony forming units (CFU) on ½ YTSS agar plates. The growth of algae was monitored with a CellStream flow cytometer (Merck, Darmstadt, Germany). […]

[3] = system: methyl group metabolism pathway genes of P. inhibens; assay: Lag phase transcriptome (dual RNA-sequencing) of DMSP-treated bacteria; assay type: cell-based, Phaeobacter inhibens; settings: 50 μM DMSP, within the first 15 min and 40 min of the lag phase, vs untreated
Description: The bacterium P. inhibens DSM 17395 was co-cultivated with the alga Emiliania huxleyi CCMP3266 (purchased from Bigelow Laboratory for Ocean Sciences, East Boothbay, ME) to investigate the metabolic response of the bacterium in the presence of algae, compared to bacteria grown as pure culture with 2 mM glucose. The analysis was conducted using a dual RNA-Sequencing method adapted from Avraham et al. 2016. The adapted method was previously described by Sperfeld et al., 2021. […] The resulting gene expression data, together with data from public databases (BioCyc and KEGG), were used to reconstruct the methyl group metabolism in P. inhibens DSM 17395 (FIG. 1C). The same dual RNA-sequencing method was used to identify genes that are differentially expressed during the lag phase of P. inhibens pure cultures treated with 50 μM DMSP, compared to control cultures without added DMSP (FIGS. 10A, and 11A-11B).
To further elucidate the fate of methyl groups, the inventors analyzed the transcriptome of DMSP-treated P. inhibens bacteria during the lag phase, and compared it to untreated control cultures. […] To further establish that DMSP methyl groups are assimilated via the methionine cycle, the inventors measured the methionine synthesis activity in protein crude extracts of stationary bacterial cells, using a biochemical assay followed by LC/MS analysis. […]

Compound: C[S+](C)CCC(=O)[O-] [DMSP, dimethylsulfoniopropionate]
- lag phase shortening [1]: does not shorten the lag phase
- lag phase shortening (P. inhibens Δbmt mutant): did not induce lag phase shortening
- lag phase shortening [2]: induction of the lag phase shortening
- expression of the methyl group metabolism pathway [3]: upregulated
